Publication PMC4750701, “Role of Mitochondrial RNA Polymerase in the Toxicity of Nucleotide Inhibitors of Hepatitis C Virus” (Antimicrobial Agents and Chemotherapy, 2016)

What was measured:
[1] = Cytotoxicity in Huh7 cells, 5-day treatment (CellTiter Glo); settings: human, Huh-7 cells
Method: (§2) All cells were cultured at 37°C in a 5% CO2 incubator with 90% humidity unless noted otherwise. […] All cells were treated with the various compounds for 5 days, except for human erythroid and myeloid progenitors, which were treated for 14 days. After the incubation period, cell viability was measured by the addition of CellTiter Glo viability reagents (Promega, Madison, WI). The luminescence signal was quantified on an Envision luminescence plate reader (PerkinElmer, Waltham, MA) after incubation of the reagents and cells for 10 min at room temperature. […] CC50 values were calculated as the average of the results of three or four independent experiments.
Cell Culture and Cytotoxicity Studies
The Huh-7 cells were maintained in growth medium containing Dulbecco's Modified Eagle
Medium (DMEM, Cellgro) supplemented with 1% Nonessential Amino Acids (NEAA, Cellgro,
Manassas, VA), 10% fetal bovine serum (FBS, HyClone, Logan, UT) and 1% Penicillin-
streptomycin-glutamate (PSG, Invitrogen, Carlsbad, CA). The cells were passaged twice weekly
and maintained at 90% confluence densities.
The HepG2 cells were maintained in Eagle’s Minimum Essential Medium (EMEM) from ATCC
(Manassas, VA) supplemented with 10% FBS, 100 units/mL penicillin and 100 µg/mL
streptomycin (P/S) (Gibco). The cells were passaged twice weekly and maintained at 90%
The PC-3 cells were maintained in Kaighn’s F12 medium (Gibco, Carlsbad, CA) supplemented
with 10% FBS (HyClone, Logan, UT), 100 units/mL penicillin and 100 µg/mL streptomycin
(P/S) (Gibco). The cells were passaged twice weekly and maintained at 90% confluence. Cells
between passages 4 and 15 were used in the assays.
The fibroblast cell line MRC-5 cell line derived from normal lung tissue, was purchased from
ATCC (Manassas, VA) and cultured in Minimum Essential Medium (MEM) (Cellgro, Manassas,
VA) supplemented with 10% FBS (HyClone, Logan, UT) and 1% PSG (Invitrogen). The cells
were passaged twice weekly and maintained at 90% confluence densities.

[2] = Cytotoxicity in stimulated PBMCs, 5 days; settings: human, stimulated PBMCs
Method: Human peripheral blood mononuclear cells (PBMCs) were isolated from human buffy coats obtained from healthy volunteers (Stanford Blood Bank, Palo Alto, CA) using standard Ficoll separation and stimulated as described elsewhere ([13]) and were tested at both quiescent and stimulated stages. Quiescent PBMCs were stimulated with 10 units per ml of recombinant human interleukin 2 (hIL-2) and 1 μg per ml phytohemagglutinin P (PHA-P) for 48 h prior to drug treatment.
as §2
Human peripheral blood mononuclear cells (PBMCs) were isolated from human buffy coats
obtained from normal healthy volunteers (Stanford Medical School Blood Center, Palo Alto,
CA). Total PBMCs were isolated from buffy coats using standard Ficoll separation and sterile
cellular isolation techniques performed in a bio-safety cabinet (1). Except where noted, the
procedure was carried out at room temperature. The final PBMCs pellet was resuspended in
Logan, UT), penicillin 100 units/mL and streptomycin 100 µg/mL (Gibco). For quiescent
PBMCs cultures, total cells were seeded in 96-well plates at a density of 1 x 10^6 cells per well, followed by immediate drug treatment. Stimulated PBMCs cultures were set up by seeding the freshly isolated PBMCs in T-175cm2 tissue culture flasks in 100 mL of RPMI containing the same components as the ones used for the quiescent PBMCs but with the addition of 10 units per mL of recombinant human interleukin-2 (hIL-2, Roche, Indianapolis, IN), and 1 µg per mL phytohemagglutinin-P (PHA-P, Sigma-Aldrich, St. Louis, MO) at density of 2  10^6 cells per mL for 48 hours at 37C in a 5% CO2 incubator with 90% humidity, prior to drug treatment.

[3] = Bone marrow erythroid progenitor colony assay, 14 days; type: cell-based, human; settings: human, read-out: Mean CC50 ± SD in Bone marrow cells Erythroid; for CC50 at 14 days: human bone marrow erythroid progenitors
[4] = biological target: T1, RNA PolI (Rattus norvegicus, UniProt O54889); assay: RNA PolI inhibition assay; type: biochemical; settings: NTP analogs 0 to 500 μM; read-out: Mean IC50 ± SD for RNA PolI
T1 construct: complexes were isolated from rat NSN1 cells and HeLa cells, respectively; made in house; host or cells: rat NSN1 cells expressing a FLAG-tagged Pol I subunit
T1 sequence (O54889 whole entry): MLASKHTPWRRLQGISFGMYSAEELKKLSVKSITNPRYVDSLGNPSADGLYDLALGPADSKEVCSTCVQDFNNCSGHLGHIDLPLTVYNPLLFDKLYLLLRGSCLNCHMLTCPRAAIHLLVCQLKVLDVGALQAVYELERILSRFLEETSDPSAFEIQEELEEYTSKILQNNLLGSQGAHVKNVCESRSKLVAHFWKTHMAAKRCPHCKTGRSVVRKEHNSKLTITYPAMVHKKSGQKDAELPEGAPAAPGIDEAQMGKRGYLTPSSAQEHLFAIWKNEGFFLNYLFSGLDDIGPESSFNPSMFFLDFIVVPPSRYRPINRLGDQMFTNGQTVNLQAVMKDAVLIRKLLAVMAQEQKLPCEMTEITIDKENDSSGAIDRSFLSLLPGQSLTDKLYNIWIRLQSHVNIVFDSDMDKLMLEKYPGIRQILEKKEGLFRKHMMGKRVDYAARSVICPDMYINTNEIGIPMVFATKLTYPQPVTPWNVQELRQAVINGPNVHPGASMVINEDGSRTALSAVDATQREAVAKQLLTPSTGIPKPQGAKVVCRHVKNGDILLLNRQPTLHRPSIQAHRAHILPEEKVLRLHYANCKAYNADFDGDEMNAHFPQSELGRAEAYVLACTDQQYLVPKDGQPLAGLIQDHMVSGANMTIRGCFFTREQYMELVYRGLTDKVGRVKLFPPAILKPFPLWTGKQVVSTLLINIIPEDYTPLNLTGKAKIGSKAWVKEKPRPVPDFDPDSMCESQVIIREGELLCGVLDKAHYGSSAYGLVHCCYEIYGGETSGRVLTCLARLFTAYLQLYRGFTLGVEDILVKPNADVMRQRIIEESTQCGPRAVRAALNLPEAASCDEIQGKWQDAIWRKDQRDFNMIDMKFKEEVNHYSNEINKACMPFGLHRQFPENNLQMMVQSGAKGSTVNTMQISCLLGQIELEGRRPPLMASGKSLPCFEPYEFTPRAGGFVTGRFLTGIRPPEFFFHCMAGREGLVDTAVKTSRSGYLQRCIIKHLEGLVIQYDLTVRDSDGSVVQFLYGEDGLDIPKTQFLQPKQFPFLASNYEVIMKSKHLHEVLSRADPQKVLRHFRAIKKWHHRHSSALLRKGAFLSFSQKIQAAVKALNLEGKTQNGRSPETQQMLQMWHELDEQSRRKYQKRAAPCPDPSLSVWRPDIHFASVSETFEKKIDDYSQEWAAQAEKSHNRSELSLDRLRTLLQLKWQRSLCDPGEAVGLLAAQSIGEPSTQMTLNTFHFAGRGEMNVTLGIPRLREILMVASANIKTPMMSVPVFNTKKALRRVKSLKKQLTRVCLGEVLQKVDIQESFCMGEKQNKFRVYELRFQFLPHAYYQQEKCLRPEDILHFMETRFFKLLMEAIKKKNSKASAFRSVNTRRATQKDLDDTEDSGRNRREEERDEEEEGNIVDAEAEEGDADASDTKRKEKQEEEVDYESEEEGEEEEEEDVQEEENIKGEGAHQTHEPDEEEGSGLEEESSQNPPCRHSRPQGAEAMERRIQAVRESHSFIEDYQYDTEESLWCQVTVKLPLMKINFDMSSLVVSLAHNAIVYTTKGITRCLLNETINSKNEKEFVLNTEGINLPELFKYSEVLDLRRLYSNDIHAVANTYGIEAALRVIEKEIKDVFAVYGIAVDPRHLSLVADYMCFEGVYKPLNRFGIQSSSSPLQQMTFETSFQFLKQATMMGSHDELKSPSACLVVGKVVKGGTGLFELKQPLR
Text: (§1) Human DNA polymerase alpha, isolated from HeLa cell extracts, was from CHIMERx (Madison, WI). Recombinant human DNA polymerase beta, expressed in E. coli, was a gift from Zucai Suo at The Ohio State University. Recombinant human DNA polymerase gamma (including both the large subunit and the small subunit) was cloned, expressed, and purified from insect cells by Gilead Sciences (Foster City, CA) ([13]). RNA PolII was purchased as part of the HeLaScribe nuclear extract in vitro transcription system kit from Promega (Madison, WI). The recombinant human PolRMT and the transcription factors mitochondrial transcription factor A (mtTFA) and B2 (mtTFB2) were purchased from Enzymax (Lexington, KY). FLAG epitope-tagged RNA PolI and PolIII complexes were isolated from rat NSN1 cells and HeLa cells, respectively ([17], [18]). The inhibition of DNA polymerases alpha, beta, and gamma, PolRMT, and PolII and the rate of single-nucleotide incorporation by PolRMT have been described previously in detail ([12], [13], [19]). Inhibition of RNA PolI and PolIII was studied using published methods ([20], [21]). All concentrations were final unless noted otherwise. For the RNA PolI inhibition assay, a reaction mixture containing 50 mM HEPES (pH 7.9), 20% glycerol, 100 mM KCl, 1 mM dithiothreitol (DTT), 50 μg/ml calf thymus DNA, 4 mM MgCl2, 5 or 80 μM UTP (0.25 μl of [5,6-^3H]UTP, >25 Ci/mmol; PerkinElmer), 1 mM noncompeting NTP, competing NTP (5 μM for GTP, CTP, and UTP and 25 μM for ATP), and various concentrations (0 to 500 μM) of NTP analogs was preincubated at 30°C for 5 min. […] After incubation at 30°C for 20 min to 1 h, the reactions were terminated by pipetting the mixtures onto DEAE-cellulose discs (DE81; Whatman), and the products analyzed as described previously ([20], [21]).

[5] = biological target: T2, recombinant human PolRMT (Homo sapiens, UniProt O00411); assay: Single-nucleotide incorporation by PolRMT; type: biochemical; settings: triphosphate form, fixed saturating concentration 500 μM, rate relative to corresponding natural rNTP
T2 construct: purchased Enzymax (Lexington, KY)
T2 sequence (O00411 42-1230): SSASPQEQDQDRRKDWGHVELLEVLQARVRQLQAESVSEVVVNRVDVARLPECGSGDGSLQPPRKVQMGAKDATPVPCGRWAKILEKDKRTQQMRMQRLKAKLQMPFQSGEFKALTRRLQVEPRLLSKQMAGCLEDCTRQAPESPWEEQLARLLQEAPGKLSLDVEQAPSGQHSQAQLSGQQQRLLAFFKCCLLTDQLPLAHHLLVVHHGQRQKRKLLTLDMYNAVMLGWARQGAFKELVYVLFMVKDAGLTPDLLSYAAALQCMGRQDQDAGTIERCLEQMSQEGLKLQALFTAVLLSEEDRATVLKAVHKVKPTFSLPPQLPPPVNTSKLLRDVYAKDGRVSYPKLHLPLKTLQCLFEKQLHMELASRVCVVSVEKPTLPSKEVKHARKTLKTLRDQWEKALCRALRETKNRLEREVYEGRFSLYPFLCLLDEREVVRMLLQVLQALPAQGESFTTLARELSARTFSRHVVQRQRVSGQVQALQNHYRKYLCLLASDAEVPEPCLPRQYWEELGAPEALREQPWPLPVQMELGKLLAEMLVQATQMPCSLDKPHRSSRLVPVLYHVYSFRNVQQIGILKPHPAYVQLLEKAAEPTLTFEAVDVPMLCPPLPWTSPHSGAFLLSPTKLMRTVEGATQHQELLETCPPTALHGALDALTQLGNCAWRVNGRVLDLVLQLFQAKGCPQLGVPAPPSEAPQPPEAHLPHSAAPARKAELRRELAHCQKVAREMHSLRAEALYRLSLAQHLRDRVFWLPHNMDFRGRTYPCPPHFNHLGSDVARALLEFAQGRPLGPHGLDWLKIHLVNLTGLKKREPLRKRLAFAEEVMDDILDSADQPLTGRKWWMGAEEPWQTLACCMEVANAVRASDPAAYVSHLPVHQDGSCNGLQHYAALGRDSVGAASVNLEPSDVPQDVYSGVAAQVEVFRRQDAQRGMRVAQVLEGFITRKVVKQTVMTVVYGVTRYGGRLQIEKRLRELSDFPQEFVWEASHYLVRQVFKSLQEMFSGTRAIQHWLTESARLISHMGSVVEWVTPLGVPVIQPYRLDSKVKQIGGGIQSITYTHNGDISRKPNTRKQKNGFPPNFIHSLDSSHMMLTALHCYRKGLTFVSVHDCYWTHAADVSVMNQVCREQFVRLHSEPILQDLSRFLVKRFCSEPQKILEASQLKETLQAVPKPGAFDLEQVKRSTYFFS
Text: Activated fish sperm DNA was purchased from USB/Affymetrix (Santa Clara, CA) and used as a template for the DNA polymerases alpha, beta, and gamma. The DNA template used in the RNA Pol II assay was a 1,188-bp restriction fragment containing the cytomegalovirus (CMV) immediate early promoter (Promega, Madison, WI). The RNA and DNA oligonucleotides used in the mitochondrial RNA polymerase assay (see Table S1 in the supplemental material) were synthesized and PAGE purified by Thermo Scientific/Dharmacon (Lafayette, CO). RNA primer R12 was 5′-^32P-phosphorylated with [γ-^32P]ATP (3,000 Ci/mmol) and T4 kinase (New England BioLabs, Ipswich, MA).
as §1
Supplementary Table S1: RNA primer and templates used in mitochondrial RNA
polymerase single nucleotide incorporation assay.
Oligonucleotides Sequencesa
Primer (R12) 5’-[…]-3’
Templates (D18) 3’-[…]-5’
a The bold letter in the template sequences denotes the bases that pair with the incoming NTP. […]

[6] = biological target: T3, RNA PolIII (Homo sapiens, UniProt O14802+Q9NW08); assay: RNA PolIII inhibition assay; type: biochemical; settings: competing NTP 100 μM CTP and GTP, 500 μM ATP; read-out: Mean IC50 ± SD for RNA PolIII
T3 construct: complexes were isolated from rat NSN1 cells and HeLa cells, respectively; made in house; host or cells: HeLa cells expressing a FLAG-tagged Pol III subunit
Text: as §1
The RNA PolIII inhibition assay was conducted in a similar manner, except that the concentrations of the competing NTP were modified to 100 μM for CTP and GTP and 500 μM for ATP to compensate for the low assay signal at lower NTP concentrations.

[7] = system: mitochondrial DNA-encoded cytochrome c oxidase (COX-1); assay: Mitochondrial protein synthesis assay (COX-1, MitoBiogenesis in-cell ELISA) in PC-3 cells; type: cell-based, human; settings: PC-3 cells; for selectivity of effect on COX-1 versus SDH-A and ATP levels: 5-day treatments
Outline: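 PC-3 cells were exposed to compound for 5 days. Protein levels of nuclear-encoded SDH-A and mitochondrial-encoded COX-1 were then quantified by in-cell ELISA (quantitative immunocytochemistry).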

[8] = system: mitochondrial spare respiratory capacity in PC-3 cells; assay: Oxygen consumption rate / spare respiratory capacity in PC-3 cells; settings: PC-3 cells, 3-day treatments
[9] = system: HCV replicon; design: method as in PMID 21357300, PMID 21060109; settings: cited from earlier work
[10] = Chronic toxicology studies in rats; type: in vivo; settings: up to 39 weeks
[11] = system: human erythroid progenitors (bone marrow cells); settings: read-out: Mean CC50 ± SD in Bone marrow cells Erythroid; 14 days; cited from earlier work
[12] = system: PC-3 cells; assay: Active triphosphate metabolite in PC-3 cells (LC-MS/MS); type: in vitro ADME, human; settings: 10 μM incubation, maximal concentration observed after 48 h during a 5-day incubation
Method: The amount of nucleoside triphosphate was determined from three independent studies by ion-pairing liquid chromatography-tandem mass spectrometry (LC-MS/MS) as previously described ([16]). All compounds were incubated with the cells at 10 μM, except for BMS-986094 and NM107, which were incubated at 0.1 and 1 μM, respectively, due to the cytotoxicity observed at higher concentrations. Triphosphate concentrations for BMS-986094 and 2′CMeC were applied at doses normalized to the concentrations anticipated after a 10 μM incubation for comparison with the other NI. The reported TP levels are the maximal concentrations observed after 48 h during a 5-day incubation.

[13] = system: human myeloid progenitors (bone marrow cells); settings: read-out: Mean CC50 ± SD in Bone marrow cells Myeloid; 14 days; cited from earlier work

| SMILES | Substrate incorporation (% of NTP [mean ± SD]) of PolRMT [5] | CC50 at 5 days [1] | CC50 at 5 days [2] | CC50 at 14 days [3] | further results |
| --- | --- | --- | --- | --- | --- |
| C[C@@]1(O)[C@H](O)[C@@H](CO)O[C@H]1n1ccc(N)nc1=O [2′CMeC, 2′-C-methyl (2′CMe) cytidine] |  | > 89 µM | 64 ± 18 µM | 99 ± 18 µM |  |
| C[C@@]1(O)[C@H](O)[C@@H](COP(=O)(O)OP(=O)(O)OP(=O)(O)O)O[C@H]1n1cnc2c(=O)[nH]c(N)nc21 [2′CMeGTP] | 92 ± 33 % of NTP |  |  |  | IC50 [4]: 300 ± 60 µM; IC50 [6]: > 500 µM |
| [N-]=[N+]=N[C@]1(CO)O[C@@H](n2ccc(N)nc2=O)[C@H](O)[C@@H]1O [4′-AzidoC, 4′-azido cytidine] |  | > 89 µM | > 100 µM | > 100 µM | selectivity of effect on COX-1 versus SDH-A and ATP levels [7]: selective inhibition of COX-1 synthesis; selectivity of effect on spare respiratory capacity versus DNA and ATP levels [8]: selective inhibition of mitochondrial respiration |
| COc1nc(N)nc2c1ncn2[C@@H]1O[C@H](COP(=O)(N[C@@H](C)C(=O)OCC(C)(C)C)Oc2cccc3ccccc23)[C@@H](O)[C@@]1(C)O (some centres unmarked) [BMS-986094] | rates similar to those of their corresponding natural rNTPs |  |  |  | fold more potent than IDX184 against the HCV replicon [9]: 30- to 60 fold; potentiation of mitochondrial and cellular toxicity by coincubation with RBV ([7]; 5-day treatment, RBV 10 μM): 3- to 4 fold; selectivity of effect on COX-1 versus SDH-A and ATP levels [7]: selective inhibition of COX-1 synthesis; selectivity of effect on spare respiratory capacity versus DNA and ATP levels [8]: selective inhibition of mitochondrial respiration; CC50 [3]: 4.5 ± 1.5 µM |
| CC(C)OC(=O)[C@H](C)N[P@](=O)(OC[C@H]1O[C@@](C#N)(c2ccc3c(N)ncnn23)[C@](C)(O)[C@@H]1OC(=O)C(C)C)Oc1ccccc1 [GS-6620] |  |  |  |  | effects during chronic toxicology studies [10]: did not show; CC50 [11]: 15 ± 7 µM; Mean TP concn ± SD [12]: BLQ; CC50 [13]: 3.1 ± 2.6 µM |
| CC(C)OC(=O)[C@H](C)N[P@](=O)(OC[C@H]1O[C@@H](n2ccc(=O)[nH]c2=O)[C@](C)(F)[C@@H]1O)Oc1ccccc1 [Sofosbuvir] | 0.45 ± 0.40 % of NTP |  |  |  | Substrate incorporation (% of NTP [mean ± SD]) of PolRMT ([5]; listed as sofosbuvir): < 1 % of NTP; CC50 [11]: > 100 µM; CC50 [13]: > 100 µM |

Continued, in another order:

| Substrate incorporation (% of NTP [mean ± SD]) of PolRMT [5] | SMILES | CC50 at 5 days [1] | CC50 at 5 days [2] | CC50 at 14 days [3] | further results |
| --- | --- | --- | --- | --- | --- |
| 1.6 ± 0.2 % of NTP | CCOc1nc(N)nc2c1ncn2[C@@H]1O[C@@H]2COP(=O)(OC(C)C)O[C@H]2[C@@]1(C)F (some centres unmarked) [PSI-938] | > 89 µM | > 100 µM | > 100 µM |  |
| 0.81 ± 0.13 % of NTP | C[C@@]1(F)[C@H](O)[C@@H](CO)O[C@H]1n1ccc(N)nc1=O [PSI-6130] | > 89 µM | 100 µM |  |  |
